# Source: paper PMC10709440, “High-throughput ligand profile characterization in novel cell lines expressing seven heterologous insect olfactory receptors for the detection of volatile plant biomarkers” (Scientific Reports, 2023)
# “And” between values parts separate entries of the source, which are not always exact repeats. Equal values may be shown once. Read-outs that look alike come from different tables or passages of the source.
# Experiments:
# Drosophila OR47a = biological target: T1, Drosophila OR47a (Drosophila melanogaster, UniProt P81921); experiment: Calcium ion fluorescence (GCaMP6) assay, OR47a stable HEK293 cell line; assay type: cell-based; settings: for Average response: mean of biological replicates; for DF norm AVERAGE OR47a: threshold 0.05, below shown as 0
# T1 construct: expressed in transfected cells
# T1 sequence (P81921 1-385): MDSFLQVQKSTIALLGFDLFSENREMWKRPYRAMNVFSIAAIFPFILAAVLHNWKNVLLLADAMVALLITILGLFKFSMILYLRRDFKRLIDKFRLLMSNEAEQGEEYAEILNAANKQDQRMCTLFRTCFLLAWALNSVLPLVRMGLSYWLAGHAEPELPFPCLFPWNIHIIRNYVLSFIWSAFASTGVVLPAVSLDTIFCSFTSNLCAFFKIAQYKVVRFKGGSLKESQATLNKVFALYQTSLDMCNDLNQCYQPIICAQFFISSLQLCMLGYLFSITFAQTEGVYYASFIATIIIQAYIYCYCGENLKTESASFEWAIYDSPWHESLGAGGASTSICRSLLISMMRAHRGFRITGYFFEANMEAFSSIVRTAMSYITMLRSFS
# T1 sequence (Q9VNB5 1-486 partner): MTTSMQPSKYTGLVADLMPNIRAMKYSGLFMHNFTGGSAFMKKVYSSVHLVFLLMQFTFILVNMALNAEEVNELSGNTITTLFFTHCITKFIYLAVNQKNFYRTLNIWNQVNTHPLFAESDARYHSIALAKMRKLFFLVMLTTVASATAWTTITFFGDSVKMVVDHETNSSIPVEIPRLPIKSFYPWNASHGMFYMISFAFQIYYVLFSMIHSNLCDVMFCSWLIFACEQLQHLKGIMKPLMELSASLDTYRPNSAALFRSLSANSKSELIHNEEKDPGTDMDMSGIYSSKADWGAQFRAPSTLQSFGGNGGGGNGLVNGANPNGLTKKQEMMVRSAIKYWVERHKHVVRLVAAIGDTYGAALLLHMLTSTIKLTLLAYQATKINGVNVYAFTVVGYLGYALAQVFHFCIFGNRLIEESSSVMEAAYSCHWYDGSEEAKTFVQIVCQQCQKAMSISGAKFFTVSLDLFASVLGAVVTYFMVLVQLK
# Method in brief: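 HEK293 lines stably expressing each Drosophila OR with GCaMP6, doxycycline-induced (1 μg/mL) 48 or 72 h. Fluorescence recorded 5 s baseline then 30 s after VOC injection at pH 7.3; ΔF=(FMAX−F0)/F0, normalized to 50 µM VUAA1 response per line, triplicate wells averaged; concentration series 0.01–100 μM.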
# Drosophila OR98a = biological target: T2, Drosophila OR98a (Drosophila melanogaster, UniProt Q9VAZ3); experiment: Calcium ion fluorescence (GCaMP6) assay, OR98a stable HEK293 cell line; assay type: cell-based; settings: for DF norm AVERAGE OR98a: threshold 0.05, below shown as 0
# T2 construct: expressed in transfected cells
# T2 sequence (Q9VAZ3 1-397): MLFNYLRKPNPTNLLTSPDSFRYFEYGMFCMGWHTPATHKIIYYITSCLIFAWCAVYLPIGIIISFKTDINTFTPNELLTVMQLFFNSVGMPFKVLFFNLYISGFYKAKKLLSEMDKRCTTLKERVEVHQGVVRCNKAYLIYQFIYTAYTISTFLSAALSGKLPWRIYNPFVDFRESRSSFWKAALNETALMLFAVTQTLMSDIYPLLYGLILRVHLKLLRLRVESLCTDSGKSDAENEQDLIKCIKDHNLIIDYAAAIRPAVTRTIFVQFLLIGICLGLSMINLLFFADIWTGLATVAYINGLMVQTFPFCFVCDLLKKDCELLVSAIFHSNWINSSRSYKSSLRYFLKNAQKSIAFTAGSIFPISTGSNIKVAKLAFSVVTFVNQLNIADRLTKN
# T2 sequence (Q9VNB5 1-486 partner): T1 sequence (Q9VNB5 1-486 partner)
# Method: These VUAA1 normalized ∆F values were used to compare the different receptors and ligands.
# The concentration-dependent effect of the reference ligands on their cognate cell lines was examined in more detail. Twelve different ligand concentrations were measured on each cell line in an overall 0.01 μM to 100 μM concentration range with 5 repetitions with three technical replicates each time.
# Twelve thousand to 18,000 cells were plated into each well of a black wall, transparent bottom 384-well microplate (Greiner) 48 h or 72 h before the measurements and were simultaneously treated with 1 μg/mL doxycycline. […] The plate has 24 columns, thus we could record responses in up to eight different cell lines in each plate. On the day of the experiment, the growth medium was replaced with 20 µL assay buffer/well (140 mM NaCl, 5 mM KCl, 2 mM CaCl2, 1 mM MgCl2, 5 mM HEPES-Na, 20 mM glucose, pH 7.3, 340 mOsm). […] Baseline fluorescence (F0) was recorded for 5 s, after which 7 µL VOC buffer (140 mM NaCl, 5 mM KCl, 2 mM CaCl2, 1 mM MgCl2, 5 mM HEPES-Na, 31 mM glucose, 0.1% DMSO, pH 7.3, 340 mOsm) was injected into each well in one row and the fluorescence response was recorded for an additional 30 s, at a rate of one read/sec. VOC solutions (VOC buffer with 4× concentration of the final measured VOC concentration, 9 µL/well was injected) were measured on the same wells in a second round with the same protocol. Each individual concentration of a specific VOC sample was recorded in three wells for the same cell line on the same microplate. The raw data were exported in xls file format, F0 and FMAX values, and the fluorescence intensity changes (∆F) were calculated in Excel (Microsoft) (Supplementary file Data summary.xlsx) using the following equation: ΔF=FMAX-F0/F0 (see also Fig. 1C). On each plate, we recorded the response of each cell line to 50 µM VUAA1. The average of these ∆F values of each cell line were used to calculate the VUAA1-normalized values for the rest of the plate, by dividing VOC response ∆F values by the average VUAA1 response ∆F value of the corresponding OR cell line. Each VOC-OR combination was measured three times as technical replicates. […] The average of these replicates were used as one ∆F and VUAA1-normalized ∆F in the following analysis.
# In the next rows we tested the reference VOCs (or other VOCs known to activate the corresponding cell lines), in order to test if all cell lines are responsive. The remaining rows were used to test VOCs with unknown effect.
# The recorded FMAX, F0, ∆F, VUAA1-normalized ∆F values, as well as the OR name, the name of the tested sample, and the final concentration for each well were copied into supplementary file Data summary.xlsx, that was used to summarize all the plates recorded. Here, the averages of the measurements were calculated for each receptor-VOC-concentration combination.
# [1] = HEK293, read-out: OR47a Average response (VUAA1-normalized)
# [2] = ligand concentration 1 (unit not given)
# [3] = ligand concentration 10 (unit not given)
# [4] = ligand concentration 100 (unit not given)
# [5] = HEK293, read-out: Average response
# [6] = HEK293, read-out: OR98a Average response (VUAA1-normalized)
smiles,measurement,setting,value
CCCCCOC(C)=O [pentyl acetate],EC50,"Drosophila OR47a; AVERAGE EC50, the 14th table, corresponds to average LOG EC50, given with 95% confidence interval",2220 nM
same,EC50,"Drosophila OR47a; EC50, AVERAGE of replicate fits, the 14th table, arithmetic average, N 5",2410 nM
same,EC50,"Drosophila OR47a; EC50, OR47a cell line, fitted Hill equation, Hill coefficient constrained to 1, maximal response max 1",2220 nM
same,EC50,"Drosophila OR47a; EC50, fitted average curve, the 14th table, fit to the average curve, n 0.854956",2560 nM
same,EC50,"Drosophila OR47a; EC50, fitted parameter per biological replicate, the 14th table, individual replicate fits",1810 nM and 2840 nM and 3360 nM and 2980 nM and 1050 nM
same,activation at 1 µM,Drosophila OR47a; [1],41%
same,activation at 10 µM,Drosophila OR47a; [1],85%
same,activation at 100 µM,Drosophila OR47a; [1],76%
same,Emax,"Drosophila OR47a; HEK293, read-out: VUAA1 normalized MAX response",96%
same,EC50,"Drosophila OR47a; LOG EC50, AVERAGE of replicate fits, the 14th table, N 5",2220 nM
same,EC50,"Drosophila OR47a; LOG EC50, fitted parameter per biological replicate, the 14th table, OR47a D-R pentyl acetate, individual replicate fits, MIN 0, n 1",1810 nM and 2840 nM and 3360 nM and 2980 nM and 1050 nM
same,OR47a response (VUAA1-normalized) at 1 μM,"Drosophila OR47a; OR47a cell line, VOC concentration 1 μM",0.41
same,OR47a response (VUAA1-normalized) at 10 μM,"Drosophila OR47a; OR47a cell line, VOC concentration 10 μM",0.85
same,OR47a response (VUAA1-normalized) at 100 μM,"Drosophila OR47a; OR47a cell line, VOC concentration 100 μM",0.76
same,Average response,"Drosophila OR47a; OR47a cell line, odorant cc. 1 µM",0.41
same,Average response,"Drosophila OR47a; OR47a cell line, odorant cc. 10 µM",0.85
same,Average response,"Drosophila OR47a; OR47a cell line, odorant cc. 100 µM",0.76
same,DF norm AVERAGE OR47a,Drosophila OR47a; [2],0.4101
same,DF norm AVERAGE OR47a,Drosophila OR47a; [3],0.8532
same,DF norm AVERAGE OR47a,Drosophila OR47a; [4],0.7595
same,"dose-response, response per biological replicate","Drosophila OR47a; the 14th table, VOC concentration 0.15",0 (2×) and 0.08996
same,"dose-response, AVERAGE response","Drosophila OR47a; the 14th table, VOC concentration 0.15, N 3",0.02999
same,"dose-response, response per biological replicate","Drosophila OR47a; the 14th table, VOC concentration 0.3",0 (2×) and 0.06871 and 0.1596
same,"dose-response, AVERAGE response","Drosophila OR47a; the 14th table, VOC concentration 0.3, N 4",0.05709
same,"dose-response, response per biological replicate","Drosophila OR47a; the 14th table, VOC concentration 0.6",0.1609 and 0.1169 and 0.06805 and 0.08558 and 0.2252
same,"dose-response, AVERAGE response","Drosophila OR47a; the 14th table, VOC concentration 0.6, N 5",0.1313
same,"dose-response, response per biological replicate","Drosophila OR47a; the 14th table, VOC concentration 1.25",0.1915 and 0.1656 and 0.1715 and 0.5641
same,"dose-response, AVERAGE response","Drosophila OR47a; the 14th table, VOC concentration 1.25, N 4",0.2732
same,"dose-response, response per biological replicate","Drosophila OR47a; the 14th table, VOC concentration 2.5",0.3991 and 0.4483 and 0.3729 and 0.3818 and 0.7224
same,"dose-response, AVERAGE response","Drosophila OR47a; the 14th table, VOC concentration 2.5, N 5",0.4649
same,"dose-response, response per biological replicate","Drosophila OR47a; the 14th table, VOC concentration 5",0.9001 and 0.6438 and 0.6113 and 0.6294 and 0.9303
same,"dose-response, AVERAGE response","Drosophila OR47a; the 14th table, VOC concentration 5, N 5",0.743
same,"dose-response, response per biological replicate","Drosophila OR47a; the 14th table, VOC concentration 10",0.8372 and 0.7794 and 0.895 and 0.7979 and 1.027
same,"dose-response, AVERAGE response","Drosophila OR47a; the 14th table, VOC concentration 10, N 5",0.8674
same,"dose-response, response per biological replicate","Drosophila OR47a; the 14th table, VOC concentration 20",1.202 and 0.8226 and 0.9992 and 0.8736 and 1.052
same,"dose-response, AVERAGE response","Drosophila OR47a; the 14th table, VOC concentration 20, N 5",0.99
same,"dose-response, response per biological replicate","Drosophila OR47a; the 14th table, VOC concentration 40",1.114 and 0.9003 and 0.922 and 0.9538 and 0.9871
same,"dose-response, AVERAGE response","Drosophila OR47a; the 14th table, VOC concentration 40, N 5",0.9754
same,"dose-response, response per biological replicate","Drosophila OR47a; the 14th table, VOC concentration 60",1.02 and 0.8294 and 1.116 and 0.8263 and 0.955
same,"dose-response, AVERAGE response","Drosophila OR47a; the 14th table, VOC concentration 60, N 5",0.9493
same,"dose-response, response per biological replicate","Drosophila OR47a; the 14th table, VOC concentration 80",0.8413 and 0.8664 and 0.788 and 0.8411
same,"dose-response, AVERAGE response","Drosophila OR47a; the 14th table, VOC concentration 80, N 4",0.8342
same,"dose-response, response per biological replicate","Drosophila OR47a; the 14th table, VOC concentration 100",0.8402 and 0.9595 and 0.7641 and 0.7857
same,"dose-response, AVERAGE response","Drosophila OR47a; the 14th table, VOC concentration 100, N 4",0.8374
same,AVERAGE MAX,"Drosophila OR47a; the 14th table, average of replicate fits, N 5",0.9609
same,"MAX, fitted average curve","Drosophila OR47a; the 14th table, fit to the average curve, n 0.854956",1
same,"MAX, fitted parameter per biological replicate","Drosophila OR47a; the 14th table, individual replicate fits",1 (2×) and 0.9126 and 0.907 and 0.9849
same,activation at 1 µM,Drosophila OR98a; [5],1.61%
same,activation at 10 µM,Drosophila OR98a; [5],4%
same,activation at 100 µM,Drosophila OR98a; [5],14%
same,activation at 1 µM,Drosophila OR98a; [6],2%
same,activation at 10 µM,Drosophila OR98a; [6],4%
same,activation at 100 µM,Drosophila OR98a; [6],14%
same,OR98a response (VUAA1-normalized) at 1 μM,"Drosophila OR98a; OR98a cell line, VOC concentration 1 μM",0.00
same,OR98a response (VUAA1-normalized) at 10 μM,"Drosophila OR98a; OR98a cell line, VOC concentration 10 μM",0.00
same,OR98a response (VUAA1-normalized) at 100 μM,"Drosophila OR98a; OR98a cell line, VOC concentration 100 μM",0.14
same,DF norm AVERAGE OR98a,Drosophila OR98a; [2],0
same,DF norm AVERAGE OR98a,Drosophila OR98a; [3],0
same,DF norm AVERAGE OR98a,Drosophila OR98a; [4],0.136
